According to US20240117417A1, “CELL ENGINEERING COMPOSITIONS AND METHODS USING FLUOROGENIC OLIGONUCLEOTIDE SIGNALING PROBES AND FLOW CYTOMETRY” (Secondcell Bio, LLC, priority 2021, published 2024):
Structures can show the parent of a compound that is named as a salt.

These molecules were tested on CFTR (assay: functional cell-based assay of the CFTR cell line (response to Forskolin)). Conditions: FIG. 22A left panel, read-out: EC50 value, dose-response curve for the CFTR cell line.
Protocol: Production of cell lines: Each gene of interest was subcloned into an independent mammalian expression vector containing a detection tag and drug selectable marker and transfected into HEK293T and CHO cells cultured using DMEM supplemented with 50 mL fetal bovine serum, a 4 mM L-Glutamine, 10 mM Hepes pH 7.4. After 1 to 3 days cells were transferred to fresh media containing mild selective pressure for 7 to 14 days. On the day of the experiment, each well of four to six 24-well tissue culture plates was plated with 200 ul to 400 ul of transfected cells at 1.25 to 2×10^6 cells/mL in serum-free media and exposed to differentially-labeled signaling probes that can hybridize with the expression products. […]
(§1) Cell-based Assays: Functional testing using fluorescent cell-based assays in the absence of any antibiotic-mediated selectable pressure was performed over time (typically for at least 4 to 6 weeks) to identify inherently stable clones. Commonly available fluorescent membrane potential and calcium flux kits and reagents were used for fluorescent cell-based assays in 96-well and 384-well plates using the Molecular Devices FLIPR 3 and Hamamatsu FDSS 6000 plate readers as described (Shekdar 2011; Shekdar and Sawchuk 2012; Shekdar and Venkatachalan 2012, Shekdar 2017). […] Currents were measured using the whole-cell configuration. […]

Molecule | EC50
C=C[C@@]1(C)CC(=O)[C@]2(O)[C@@]3(C)[C@@H](O)CCC(C)(C)[C@@H]3[C@H](O)[C@H](OC(C)=O)[C@@]2(C)O1 [Forskolin] | 0.256 µM

These molecules were tested on GABAA receptor ion channel subunit combinations α1β3γ2s, α2β3γ2s, α3β3γ2s or α5β3γ2s (assay: HTS of LOPAC library on the panel of GABAA cell lines, fluorescent membrane potential cell-based assay). Conditions: not given.
Protocol: Production of cell lines: Each gene of interest was subcloned into an independent mammalian expression vector containing a detection tag and drug selectable marker and transfected into HEK293T and CHO cells cultured using DMEM supplemented with 50 mL fetal bovine serum, a 4 mM L-Glutamine, 10 mM Hepes pH 7.4. After 1 to 3 days cells were transferred to fresh media containing mild selective pressure for 7 to 14 days. On the day of the experiment, each well of four to six 24-well tissue culture plates was plated with 200 ul to 400 ul of transfected cells at 1.25 to 2×10^6 cells/mL in serum-free media and exposed to differentially-labeled signaling probes that can hybridize with the expression products. For each well, 1.7 to 2.5 uL of each probe at a concentration of 2.5 to 5 uM was added to 50 uL of serum free media in tube A and 0.3 to 0.75 uL of transfection reagent, using Lipofectamine for HEK cells (Thermo Fisher 18324) and jetPEI for CHO (Polyplus Transfection 101) was added to tube B. The contents of tubes A and B were mixed and incubated at room temperature for 25 to 30 minutes prior to addition to the well. Following a 1 to 2 hour incubation at 37° C. in a tissue culture incubator, serum-free media was added to the well up to a total volume of 1 mL. The plates were spun at 2,000 RPM for 4 minutes. 750 uL of media was aspirated and replaced with 250 uL of fresh serum-free media. The cells were incubated for an additional 2 to 2.5 hours then used to isolate individual positive cells using Beckman Coulter Epic Altra or Becton Dickinson FACS Aria flow cytometers.
(§2) Cell-based Assays: Functional testing using fluorescent cell-based assays in the absence of any antibiotic-mediated selectable pressure was performed over time (typically for at least 4 to 6 weeks) to identify inherently stable clones. Commonly available fluorescent membrane potential and calcium flux kits and reagents were used for fluorescent cell-based assays in 96-well and 384-well plates using the Molecular Devices FLIPR 3 and Hamamatsu FDSS 6000 plate readers as described (Shekdar 2011; Shekdar and Sawchuk 2012; Shekdar and Venkatachalan 2012, Shekdar 2017). Electrophysiology of ion channel cell lines was obtained using the Nanion Technologies Patchliner patch clamp system. The patch clamp recordings were conducted according to Nanion's standard procedure (Obergrussberger 2014). Currents were measured using the whole-cell configuration. The extracellular solution contained the following: 140 mM NaCl, 4 mM KCl, 1 mM MgCl2, 2 mM CaCl2), 5 mM glucose, 10 mM Hepes, pH 7.4 (adjusted with NaOH). The intracellular solution for sodium current recordings contained the following: 50 mM CsCl, 10 mM NaCl, 60 mM CsF, 20 mM EGTA, 10 mM Hepes, pH 7.2 (adjusted with CsOH). For transient transfection studies, Fugene 6 was used to transfect expression plasmid into cells cultured as above and cells were assayed three days post-transfection.

Molecule | HTS hit: activated at least one of the GABAA cell lines at least as much as GABA itself
C[C@]12CC[C@@H](O)C[C@@H]1CC[C@@H]1[C@@H]2CC[C@]2(C)C(=O)CC[C@@H]12 [Androsterone] | identified
CC(C)c1cccc(C(C)C)c1O [Propofol] | activated at least one of the cell lines at least as much as GABA itself

Same assay, conditions: LOPAC (Sigma 1280) screen on panel of four GABAA cell lines

Molecule | HTS hit: activated at least one of the GABAA cell lines at least as much as GABA itself
Ivermectin | identified
CCCCNc1c(C(=O)OCC)c(C)nc2c1cnn2CC [Tracazolate] | activated at least one of the cell lines at least as much as GABA itself
NCCCC(=O)O [GABA] | activated at least one of the cell lines at least as much as GABA itself
CC(=O)[C@H]1CC[C@H]2[C@@H]3CC[C@H]4C[C@H](O)CC[C@]4(C)[C@H]3C(=O)C[C@]12C [5-alpha-pregnan-3alpha-ol-11,20-dione] | activated at least one of the cell lines at least as much as GABA itself
C[C@]12CC[C@@H](O)C[C@@H]1CC[C@@H]1[C@@H]2CC[C@]2(C)[C@@H](C(=O)CO)CC[C@@H]12 [3-alpha, 21-dihydroxy-5-alpha-pregnan-20-one] | activated at least one of the cell lines at least as much as GABA itself
COc1cc(/C=C(\C#N)C(=O)c2ccc(O)c(O)c2)cc(I)c1O [I-OMe-Tyrphostin AG 538] | identified
CC(C)(C)c1cc(C=C(C#N)C#N)cc(C(C)(C)C)c1O [Tyrphostin A9] | identified
O=C(Nc1ccc([N+](=O)[O-])cc1Cl)c1cc(Cl)ccc1O [Niclosamide] | identified
OCCN(CCO)c1nc(N2CCCCC2)c2nc(N(CCO)CCO)nc(N3CCCCC3)c2n1 [Dipyridamole] | identified
NCc1cc(=O)[nH]o1 [Muscimol hydrobromide] | activated at least one of the cell lines at least as much as GABA itself
CN1C(=O)CCS(=O)(=O)C1c1ccc(Cl)cc1 (centres unmarked) [Chlormezanone] | identified
O=C(O)C1=CCNCC1 [Isoguvacine hydrochloride] | activated at least one of the cell lines at least as much as GABA itself
O=S(=O)(O)C1CCNCC1 [Piperidine-4-sulphonic acid] | activated at least one of the cell lines at least as much as GABA itself
CC(=O)[C@H]1CC[C@H]2[C@@H]3CC[C@H]4C[C@H](O)CC[C@]4(C)[C@H]3CC[C@]12C [5-alpha-pegnan-3alpha-ol-20-one] | activated at least one of the cell lines at least as much as GABA itself

The molecules below were run against T1, αβγ-ENaC (Homo sapiens, UniProt P37088+P51168+P51170) (assay: cell-based assay selective for αβγ-ENaC activity (response to sodium increase)). Conditions: 75 mM increase in sodium concentration, FIG. 23B right panel.
T1 construct: expressed in transfected cells
T1 sequence (P51170 whole entry): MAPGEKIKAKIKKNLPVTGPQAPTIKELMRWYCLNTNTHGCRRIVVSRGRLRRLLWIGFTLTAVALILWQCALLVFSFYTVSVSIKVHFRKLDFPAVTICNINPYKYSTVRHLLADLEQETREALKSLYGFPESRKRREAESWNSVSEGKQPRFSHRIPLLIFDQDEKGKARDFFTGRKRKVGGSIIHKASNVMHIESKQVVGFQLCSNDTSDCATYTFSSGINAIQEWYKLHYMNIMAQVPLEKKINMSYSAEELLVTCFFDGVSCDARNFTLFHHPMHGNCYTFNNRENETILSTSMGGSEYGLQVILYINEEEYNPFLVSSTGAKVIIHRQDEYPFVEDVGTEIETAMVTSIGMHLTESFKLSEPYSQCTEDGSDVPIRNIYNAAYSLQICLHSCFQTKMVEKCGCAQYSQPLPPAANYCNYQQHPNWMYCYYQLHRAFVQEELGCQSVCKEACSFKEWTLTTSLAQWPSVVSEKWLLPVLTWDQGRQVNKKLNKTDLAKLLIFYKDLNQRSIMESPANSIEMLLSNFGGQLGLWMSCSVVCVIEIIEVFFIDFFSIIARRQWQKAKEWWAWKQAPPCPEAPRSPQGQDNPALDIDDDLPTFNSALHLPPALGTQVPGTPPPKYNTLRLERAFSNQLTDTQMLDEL
T1 sequence (P51168 whole entry): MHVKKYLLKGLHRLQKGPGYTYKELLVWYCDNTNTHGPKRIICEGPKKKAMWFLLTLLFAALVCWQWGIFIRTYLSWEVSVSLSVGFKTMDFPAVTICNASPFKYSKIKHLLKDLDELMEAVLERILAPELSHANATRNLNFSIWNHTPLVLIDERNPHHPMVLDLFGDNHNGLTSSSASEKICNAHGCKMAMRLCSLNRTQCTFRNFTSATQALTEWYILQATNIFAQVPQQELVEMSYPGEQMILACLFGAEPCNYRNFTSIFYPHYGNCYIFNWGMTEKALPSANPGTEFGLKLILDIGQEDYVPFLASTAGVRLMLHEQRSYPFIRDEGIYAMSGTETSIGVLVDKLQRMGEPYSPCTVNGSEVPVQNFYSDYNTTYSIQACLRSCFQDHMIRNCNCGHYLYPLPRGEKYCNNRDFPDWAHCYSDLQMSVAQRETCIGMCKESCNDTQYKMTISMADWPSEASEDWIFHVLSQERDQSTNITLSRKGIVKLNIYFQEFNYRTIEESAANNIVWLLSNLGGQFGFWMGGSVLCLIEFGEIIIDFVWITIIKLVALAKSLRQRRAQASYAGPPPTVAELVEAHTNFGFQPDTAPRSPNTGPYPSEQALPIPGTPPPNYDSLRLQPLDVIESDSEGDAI
T1 sequence (P37088 whole entry): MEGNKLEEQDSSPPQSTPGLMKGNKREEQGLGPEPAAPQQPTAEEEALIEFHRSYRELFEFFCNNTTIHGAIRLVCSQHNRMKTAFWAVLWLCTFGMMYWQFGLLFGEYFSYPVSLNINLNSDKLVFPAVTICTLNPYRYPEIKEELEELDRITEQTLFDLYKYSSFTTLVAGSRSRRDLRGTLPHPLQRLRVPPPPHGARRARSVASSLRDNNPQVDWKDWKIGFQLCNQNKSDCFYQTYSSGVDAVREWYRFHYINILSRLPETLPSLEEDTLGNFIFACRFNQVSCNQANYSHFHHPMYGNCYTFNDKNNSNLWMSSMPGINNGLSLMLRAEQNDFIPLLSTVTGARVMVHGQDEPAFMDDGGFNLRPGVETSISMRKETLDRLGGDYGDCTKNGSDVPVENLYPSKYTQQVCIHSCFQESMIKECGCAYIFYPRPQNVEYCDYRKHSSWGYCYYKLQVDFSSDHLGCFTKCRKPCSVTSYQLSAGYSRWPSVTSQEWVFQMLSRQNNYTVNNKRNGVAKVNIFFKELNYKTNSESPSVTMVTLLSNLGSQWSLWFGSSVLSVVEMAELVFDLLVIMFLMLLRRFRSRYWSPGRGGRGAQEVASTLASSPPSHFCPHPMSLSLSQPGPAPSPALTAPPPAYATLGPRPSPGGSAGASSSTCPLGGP
Protocol: Production of cell lines: Each gene of interest was subcloned into an independent mammalian expression vector containing a detection tag and drug selectable marker and transfected into HEK293T and CHO cells cultured using DMEM supplemented with 50 mL fetal bovine serum, a 4 mM L-Glutamine, 10 mM Hepes pH 7.4. After 1 to 3 days cells were transferred to fresh media containing mild selective pressure for 7 to 14 days. […]
as §1
(§3) Finally, Chromovert® Technology was used to create a cell line for ENaC. […] One potentiator identified during HTS of proteolyzed ENaC was assessed in human sensory studies where it was confirmed to enhance the salty taste of sodium chloride, as shown in FIG. 23E.

Molecule | effect on the response of the αβγ-ENaC cell line to a sodium increase
N=C(N)NC(=O)c1nc(Cl)c(N)nc1N [amiloride] | inhibition of the response to a 75 mM increase in sodium concentration

What follows are molecules tested on proteolyzed αβγ-ENaC (assay: HTS of a compound library against proteolyzed ENaC cell line). Conditions: not given.
Format: cell-based
Protocol: as §2, with “The intracellular solution for sodium current recordings contained the following: 50 mM CsCl, 10 mM NaCl, 60 mM CsF, 20 mM EGTA, 10 mM Hepes, pH 7.2 (adjusted with CsOH). For transient transfection studies, Fugene 6 was used to transfect expression plasmid into cells cultured as above and cells were assayed three days post-transfection.” left out
as §3

Molecule | activity identified during HTS of proteolyzed αβγ-ENaC
CCCc1ccc(OC(=O)c2ccco2)cc1 [STE1, 4-propylphenyl 2-furoate] | potentiator of proteolyzed αβγ-ENaC

Each molecule was assayed on salty taste of sodium chloride (assay: human sensory taste testing, pairwise comparisons). Conditions: pairwise comparisons of 45 mM NaCl+15 pg STE1/mL.
Format: in vivo
Protocol: The sensory studies used pairwise comparisons of 45 mM NaCl+15 pg STE1/mL using a human sensory taste testing protocol approved by an institutional review board, 13 out of 15 participants selected the sample containing STE1 as more salty.

Molecule | participants who selected the sample containing STE1 as more salty
CCCc1ccc(OC(=O)c2ccco2)cc1 [STE1, 4-propylphenyl 2-furoate] | 13 out of 15
